{"source": "paper PMC7321408", "about": "“One-Pot Multicomponent Synthesis and Bioevaluation of Tetrahydroquinoline Derivatives as Potential Antioxidants, α-Amylase Enzyme Inhibitors, Anti-Cancerous and Anti-Inflammatory Agents” (Molecules, 2020)", "key": {"[1]": {"test": "MTT cytotoxicity against raw macrophages", "assay_type": "cell-based, albino rats", "conditions": "rat; for viability at 24 h, 1 µM / viability at 24 h, 10 µM / viability at 24 h, 50 µM / viability at 24 h, 100 µM: peritoneal macrophages (raw macrophages), raw macrophages, MTT, read-out: % Cell Viability; for IC50 at 24 h: primary peritoneal macrophages, mean ± SEM, n = 3", "summary_of_the_method": "(§1)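 Peritoneal macrophages from albino rats were treated for 24 h at 37 °C, 5% CO2 with test compounds at 100, 50, 10 and 1 µM or vehicle, from DMSO stocks. MTT was then added for 2 h, formazan dissolved in DMSO and absorbance read at 570 nm. % viability = blank-corrected sample over blank-corrected control ×100.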"}, "[2]": {"tested_on": "raw macrophages", "test": "MTT cytotoxicity against raw macrophages", "assay_type": "cell-based, albino rats", "conditions": "mean ± SEM, n = 3", "summary_of_the_method": "as §1"}, "[3]": {"tested_on": "carrageenan-induced paw edema", "test": "Carrageenan-induced paw edema (in vivo anti-inflammatory activity)", "parameters": "species or system BALB/C albino mice; unit not given beside the values", "conditions": "10 mg/kg, mice, n = 5", "procedure": "At 7–8 weeks old, male BALB/C albino mice (29–35 g), were purchased from The National Institute of Health (NIH), Islamabad, Pakistan. Five animals were housed per group and placed in a controlled temperature and humidity-controlled room (22 °C and 66 ± 5%, respectively) in a 12 h light–dark cycle and provided with water and food ad libitum. Ethical approval was taken from the bio-ethical committee of Quaid-I-Azam University (Approval No. BEC-FBS-QAU2018-119) and all protocols were conducted following the Ethical Guide to the Code of Practice for the Housing and Care of Animals Act 1986 (ARRIVE (Animal Research: Reporting In Vivo Experiments) guidelines). The anti-inflammatory activity of the synthesized compounds was evaluated by using the carrageenan-induced rat paw edema assay. To determine the dose response of tetrahydroquinoline derivatives, animals were first given a dose of 0.1, 1 and 10 mg/kg against 100 µL carrageenan (1% solution in normal saline)/paw. Treatment was given 60 min before carrageenan injection. Readings were taken at 4 h post carrageenan injection. The in vivo anti-inflammatory activity was performed following the procedure described by Koksal, et al. in 2017. Paw edema was induced by injecting 100 µL of 1% sterile carrageenan solution into the right hind paw of mice. Synthesized compounds (10 mg/kg), vehicle (saline with 2% DMSO) and drug (acetylsalicylic acid, ASA 10 mg/kg) were administered to the mice orally by gastric intubation 60 min before injecting carrageenan into the right hind paw. The decrease in edema was measured by vernier calipers every 2 h."}, "[4]": {"test": "Phosphomolybdenum-based total antioxidant capacity (TAC)", "procedure": "In the presence of an antioxidant, the phosphomolybdate ion gets reduced and a green phosphate–molybdate complex is formed, which is analyzed spectrophotometrically.\nThe total antioxidant capacity was determined by using the phosphomolybdenum-based method. The method is based on the reduction of Mo (VI) to Mo (V), leading to the formation of a green-colored phosphate–molybdenum complex that gives absorption at 630 nm. In 96-well plates, 20 µL of the sample was added with 180 µL TAC reagents in it and incubated at 95 °C for 90 min in a water bath and cooled at room temperature. The results were calculated as µg AAE/mg."}, "[5]": {"tested_on": "α-amylase enzyme", "test": "α-Amylase enzyme inhibitory assay", "assay_type": "biochemical", "conditions": "200 µg/mL", "procedure": "An in vitro α-amylase enzyme inhibitory assay was performed by the standard protocol. Four milligrams per 1 mL of sample was prepared in DMSO. In each well of a 96-well plate, synthetic compounds were added to a final concentration of 200 µg/mL. To this, 15 μL phosphate buffer, […] α-amylase enzyme and 40 μL starch solution were added stepwise. The microplate was incubated at 50 °C for 30 min. […] The formula used to calculate the percent enzyme inhibition is:% Enzyme inhibition = [(As − An) ÷ (Ab − An] × 100\nAs = sample’s absorbance; An = negative’s absorbance; Ab = blank’s absorbance"}}}
{"smiles": "c1ccc2c(c1)CCCN2CN1CCCCC1", "note": "[SF1, 1-(Piperidine-1-ylmethyl) 1,2,3,4-tetrahahydroquinoline]", "values": [{"measurement": "viability at 24 h, 1 µM", "setting": "[1]; albino", "value": "58 ± 0.76", "unit": "%"}, {"measurement": "viability at 24 h, 10 µM", "setting": "[1]; albino", "value": "48 ± 1.34", "unit": "%"}, {"measurement": "viability at 24 h, 50 µM", "setting": "[1]; albino", "value": "47 ± 0.84", "unit": "%"}, {"measurement": "viability at 24 h, 100 µM", "setting": "[1]; albino", "value": "44.7 ± 0.5", "unit": "%"}, {"measurement": "IC50 at 24 h", "setting": "[1]; albino", "value": "6.232 ± 0.01", "unit": "µM"}, {"measurement": "IC50", "setting": "[2]", "value": "6.23 ± 0.01", "unit": "µM"}, {"measurement": "Paw thickness", "setting": "[3]; 0 h after carrageenan injection", "value": "2.06 ± 0.07"}, {"measurement": "Paw thickness", "setting": "[3]; 2 h after carrageenan injection", "value": "2.13 ± 0.03"}, {"measurement": "Paw thickness", "setting": "[3]; 4 h after carrageenan injection", "value": "2.18 ± 0.06"}, {"measurement": "Paw thickness", "setting": "[3]; 6 h after carrageenan injection", "value": "2.25 ± 0.05"}]}
{"smiles": "CN1CCN(CN2CCCc3ccccc32)CC1", "note": "[SF5]", "values": [{"measurement": "Total antioxidant capacity (TAC)", "setting": "[4]", "value": "285.46 ± 2.1", "unit": "µg/AAE"}, {"measurement": "% inhibition of α-amylase enzyme", "setting": "[5]", "value": 97.37, "unit": "%"}, {"measurement": "viability at 24 h, 1 µM", "setting": "[1]; albino", "value": "98 ± 1.01", "unit": "%"}, {"measurement": "viability at 24 h, 10 µM", "setting": "[1]; albino", "value": "74 ± 0.42", "unit": "%"}, {"measurement": "viability at 24 h, 50 µM", "setting": "[1]; albino", "value": "67 ± 0.84", "unit": "%"}, {"measurement": "viability at 24 h, 100 µM", "setting": "[1]; albino", "value": "60 ± 1.2", "unit": "%"}, {"measurement": "IC50 at 24 h", "setting": "[1]; albino", "value": "6.181 ± 0.05", "unit": "µM"}]}
{"smiles": "c1ccc(N(CN2CCCc3ccccc32)c2ccccc2)cc1", "note": "[SF7, N-((3,4-dihydroquinolin-1(2H)-yl)methyl)-N-phenylaniline]", "values": [{"measurement": "Total antioxidant capacity (TAC)", "setting": "[4]", "value": "242.77 ± 2.31", "unit": "µg/AAE"}, {"measurement": "% inhibition of α-amylase enzyme", "setting": "[5]", "value": 88.67, "unit": "%"}, {"measurement": "viability at 24 h, 1 µM", "setting": "[1]; albino", "value": "96 ± 0.89", "unit": "%"}, {"measurement": "viability at 24 h, 10 µM", "setting": "[1]; albino", "value": "95 ± 0.96", "unit": "%"}, {"measurement": "viability at 24 h, 50 µM", "setting": "[1]; albino", "value": "84 ± 0.77", "unit": "%"}, {"measurement": "viability at 24 h, 100 µM", "setting": "[1]; albino", "value": "58 ± 0.83", "unit": "%"}, {"measurement": "IC50 at 24 h", "setting": "[1]; albino", "value": "18.64 ± 0.13", "unit": "µM"}, {"measurement": "IC50 at 24 h", "setting": "[1]", "value": "18.6 ± 0.13", "unit": "µM"}]}
